Measurements: paper PMC7044277 (Nature Communications, 2020)
“And” between values parts separate entries of the source, which are not always exact repeats. Equal values may be shown once.

Key:
[1] = biological target: DRD2 F1103.28A (Homo sapiens, UniProt P14416, F110A); assay type: binding; set-up: expressed in transfected cells; host or cells: HEK293T (ATCC CRL-11268)
[2] = biological target: DRD3 F1063.28A (Homo sapiens, UniProt P35462, F106A); test: biochemical; assay type: binding
[3] = biological target: T1, DRD2 V1113.29A (Homo sapiens, UniProt P14416, V111A); assay type: binding; conditions: DRD2 V1113.29A vs wild-type
T1 construct: expressed in transfected cells; host or cells: HEK293T (ATCC CRL-11268)
T1 sequence (P14416 whole entry V111A): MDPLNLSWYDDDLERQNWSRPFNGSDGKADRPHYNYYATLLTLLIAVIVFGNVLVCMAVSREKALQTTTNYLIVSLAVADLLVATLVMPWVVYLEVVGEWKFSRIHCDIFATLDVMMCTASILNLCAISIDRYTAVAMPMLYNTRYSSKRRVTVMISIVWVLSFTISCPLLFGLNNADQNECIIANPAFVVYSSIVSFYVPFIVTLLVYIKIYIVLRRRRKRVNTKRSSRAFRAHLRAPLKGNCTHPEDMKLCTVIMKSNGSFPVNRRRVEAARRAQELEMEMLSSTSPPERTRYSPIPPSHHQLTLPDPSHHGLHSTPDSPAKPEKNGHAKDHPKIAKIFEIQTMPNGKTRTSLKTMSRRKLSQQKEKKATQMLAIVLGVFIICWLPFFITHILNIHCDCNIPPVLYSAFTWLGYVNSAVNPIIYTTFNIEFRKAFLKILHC

[4] = biological target: DRD3 wild-type (Homo sapiens, UniProt P35462); test: Radioligand competition binding, [3H]-N-methylspiperone; set-up: Fig_1a competition binding curve, source data: unit not given here; conditions: for Fig_1a competition binding curve, source data: Log [L-741626]
Chain of DRD3 wild-type (P35462 whole entry): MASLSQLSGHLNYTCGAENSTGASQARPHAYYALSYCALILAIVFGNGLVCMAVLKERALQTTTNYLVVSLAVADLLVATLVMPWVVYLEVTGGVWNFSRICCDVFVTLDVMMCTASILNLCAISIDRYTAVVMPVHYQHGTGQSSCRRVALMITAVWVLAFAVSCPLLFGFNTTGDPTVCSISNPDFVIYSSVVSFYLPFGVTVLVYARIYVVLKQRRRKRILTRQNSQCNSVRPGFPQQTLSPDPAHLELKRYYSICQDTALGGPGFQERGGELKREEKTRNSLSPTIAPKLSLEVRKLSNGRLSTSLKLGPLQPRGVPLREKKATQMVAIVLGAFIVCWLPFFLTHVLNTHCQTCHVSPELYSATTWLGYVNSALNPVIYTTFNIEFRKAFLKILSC

[5] = biological target: T2, DRD2 F1103.28L (Homo sapiens, UniProt P14416, F110L); assay type: binding
T2 construct: expressed in transfected cells; host or cells: HEK293T (ATCC CRL-11268)
T2 sequence (P14416 whole entry F110L): as the sequence (P14416 whole entry V111A) above, with F110L, A111V counted along it

[6] = biological target: T3, DRD2 F1103.28Y (Homo sapiens, UniProt P14416, F110Y); assay type: binding
T3 construct: expressed in transfected cells; host or cells: HEK293T (ATCC CRL-11268)
T3 sequence (P14416 whole entry F110Y): as the sequence (P14416 whole entry V111A) above, with F110Y, A111V counted along it

[7] = biological target: T4, DRD2 F1103.28W (Homo sapiens, UniProt P14416, F110W); assay type: binding
T4 construct: expressed in transfected cells; host or cells: HEK293T (ATCC CRL-11268)
T4 sequence (P14416 whole entry F110W): as the sequence (P14416 whole entry V111A) above, with F110W, A111V counted along it

[8] = biological target: T5, DRD4 (D4.4 variant) wild-type (Homo sapiens, UniProt P21917); test: Radioligand competition binding, [3H]-N-methylspiperone; conditions: for Fig_1a competition binding curve, source data: Log [L-741626]
T5 sequence (P21917 1-419): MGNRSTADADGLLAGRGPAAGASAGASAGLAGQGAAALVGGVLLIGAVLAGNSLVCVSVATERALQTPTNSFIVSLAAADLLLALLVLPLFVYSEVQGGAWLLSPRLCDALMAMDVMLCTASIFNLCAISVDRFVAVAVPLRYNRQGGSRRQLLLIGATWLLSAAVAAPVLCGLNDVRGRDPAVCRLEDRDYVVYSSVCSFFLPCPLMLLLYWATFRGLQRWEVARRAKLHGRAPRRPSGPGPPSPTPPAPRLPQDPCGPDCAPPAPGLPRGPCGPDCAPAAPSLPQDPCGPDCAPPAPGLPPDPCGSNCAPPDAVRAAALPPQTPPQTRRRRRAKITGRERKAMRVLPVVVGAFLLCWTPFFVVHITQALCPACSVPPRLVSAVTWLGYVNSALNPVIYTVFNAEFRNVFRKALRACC

[9] = biological target: T6, DRD2 F1103.28E (Homo sapiens, UniProt P14416, F110E); assay type: binding; conditions: DRD2 F1103.28E vs wild-type
T6 construct: expressed in transfected cells; host or cells: HEK293T (ATCC CRL-11268)
T6 sequence (P14416 whole entry F110E): as the sequence (P14416 whole entry V111A) above, with F110E, A111V counted along it

[10] = biological target: T7, DRD2 L942.64A (Homo sapiens, UniProt P14416, L94A); assay type: binding; conditions: DRD2 L942.64A vs DRD2 wild-type
T7 construct: expressed in transfected cells; host or cells: HEK293T (ATCC CRL-11268)
T7 sequence (P14416 whole entry L94A): as the sequence (P14416 whole entry V111A) above, with L94A, A111V counted along it

[11] = biological target: T8, DRD2 Y4087.35A (Homo sapiens, UniProt P14416, Y408A); assay type: binding; conditions: DRD2 Y4087.35A vs wild-type
T8 construct: expressed in transfected cells; host or cells: HEK293T (ATCC CRL-11268)
T8 sequence (P14416 whole entry Y408A): as the sequence (P14416 whole entry V111A) above, with A111V, Y408A counted along it

[12] = biological target: DRD2 (D2 long receptor) wild-type (Homo sapiens, UniProt P14416); test: Radioligand competition binding, [3H]-N-methylspiperone, HEK293T membranes; set-up: Fig_1a competition binding curve, source data: unit not given here; conditions: Log [L-741626]
Chain of DRD2 (D2 long receptor) wild-type (P14416 whole entry): as the sequence (P14416 whole entry V111A) above, with A111V counted along it

[13] = biological target: T9, DRD2 W100ECL1F (Homo sapiens, UniProt P14416, W100F); assay type: binding; conditions: DRD2 W100ECL1F vs wild-type
T9 construct: expressed in transfected cells; host or cells: HEK293T (ATCC CRL-11268)
T9 sequence (P14416 whole entry W100F): as the sequence (P14416 whole entry V111A) above, with W100F, A111V counted along it

[14] = biological target: T10, DRD2 F1103.28C (Homo sapiens, UniProt P14416, F110C); assay type: binding; conditions: DRD2 F1103.28C vs wild-type
T10 construct: expressed in transfected cells; host or cells: HEK293T (ATCC CRL-11268)
T10 sequence (P14416 whole entry F110C): as the sequence (P14416 whole entry V111A) above, with F110C, A111V counted along it

[15] = biological target: T11, DRD2 W100EL1A (Homo sapiens, UniProt P14416, W100A); assay type: binding; conditions: DRD2 W100EL1A vs wild-type
T11 construct: expressed in transfected cells; host or cells: HEK293T (ATCC CRL-11268)
T11 sequence (P14416 whole entry W100A): as the sequence (P14416 whole entry V111A) above, with W100A, A111V counted along it

Chain of DRD3 F1063.28A (P35462 whole entry F106A): as the sequence (P35462 whole entry) above, with F106A counted along it
Chain of DRD2 F1103.28A (P14416 whole entry F110A): as the sequence (P14416 whole entry V111A) above, with F110A, A111V counted along it

## OC1(c2ccc(Cl)cc2)CCN(Cc2c[nH]c3ccccc23)CC1 [L-741626]
[1]; DRD2 F1103.28A vs wild-type
  ΔpKi (mutant-WT): 2.14
[1]; DRD2 Phe110^3.28Ala vs wild-type DRD2
  affinity increase (binding enhanced), mutant vs wild type: 144.18 fold
[2]
  Ki: 5.37 nM
[2]; DRD3 F1063.28A vs DRD3 wild-type
  ΔpKi (mutant-WT): 1.54
[2]; DRD3 Phe106^3.28Ala vs wild-type DRD3
  binding affinity increased, mutant vs wild type: 34.67 fold
[3]
  ΔpKi (mutant-WT): -0.26
[4]
  Ki: 186 nM
[4]; M -6
  Fig_1a competition binding curve, source data: 32.8337 and 26.7408 and 38.6364 and 33.7041 and 31.0928
[4]; M -7
  Fig_1a competition binding curve, source data: 71.7118 and 82.4468 and 88.2495 and 78.675 and 74.323 and 84.4778
[4]; M -8.5
  Fig_1a competition binding curve, source data: 107.108 and 98.6944 and 100.725 and 87.3791 and 104.497 and 101.596
[4]; M -9
  Fig_1a competition binding curve, source data: 98.4043 and 97.5338 and 93.7621 and 84.7679 and 88.8298 and 89.7002
[4]; M -9.5
  Fig_1a competition binding curve, source data: 87.3791 and 78.3849 and 90.2805 and 81.5764 and 85.058 and 98.1141
[4]; M -10
  Fig_1a competition binding curve, source data: 76.9342 and 89.7002 and 81.8665 and 72.2921 and 84.1876 and 72.0019
[4]; M -11
  Fig_1a competition binding curve, source data: 74.6132 and 85.6383 and 84.7679 and 77.8046 and 89.7002 and 91.441
[4]; M -12
  Fig_1a competition binding curve, source data: 84.7679 and 85.9284 and 102.466 and 78.0948 and 88.2495
[4]; M -13
  Fig_1a competition binding curve, source data: 63.0077 and 75.4836 and 75.1934 and 78.675 and 77.5145 and 81.2863
[5]; DRD2 F1103.28L vs wild-type
  ΔpKi (mutant-WT): 1.27
[5]; DRD2 Phe110^3.28Leu vs wild-type DRD2
  binding enhanced, mutant vs wild type: 18.65 fold
[6]; DRD2 F1103.28Y vs wild-type
  ΔpKi (mutant-WT): -1.76
[6]; DRD2 Phe110^3.28Tyr vs wild-type DRD2
  binding reduced, mutant vs wild type: 57.54 fold
[7]; DRD2 F1103.28W vs wild-type
  ΔpKi (mutant-WT): -0.93
[7]; DRD2 Phe110^3.28Trp vs wild-type DRD2
  binding reduced, mutant vs wild type: 8.51 fold
[8]
  Ki: 170 nM
[8]; M -7
  Fig_1a competition binding curve, source data: 75.0526 and 67.9047 and 62.8591 and 59.9159 and 75.8935
[8]; M -8
  Fig_1a competition binding curve, source data: 91.8711 and 84.3027 and 93.5529 and 96.4962
[8]; M -8.5
  Fig_1a competition binding curve, source data: 103.224 and 99.4394 and 102.803 and 91.8711
[8]; M -9
  Fig_1a competition binding curve, source data: 79.2572 and 91.8711 and 89.7687 and 85.9846 and 96.9166 and 113.735
[8]; M -9.5
  Fig_1a competition binding curve, source data: 89.7687 and 87.246 and 104.905 and 87.6664 and 93.1325 and 88.9278
[8]; M -10
  Fig_1a competition binding curve, source data: 74.6321 and 83.0413 and 75.8935 and 70.4275 and 85.5641 and 84.3027
[8]; M -11
  Fig_1a competition binding curve, source data: 92.712 and 78.8367 and 85.1437 and 96.4962 and 77.9958 and 82.6209
[8]; M -12
  Fig_1a competition binding curve, source data: 77.1549 and 85.1437 and 89.7687 and 83.4618 and 81.3595
[8]; M -13
  Fig_1a competition binding curve, source data: 88.0869 and 85.5641 and 82.6209 and 79.6776 and 79.2572
[9]
  ΔpKi (mutant-WT): 0.03
[10]
  ΔpKi (mutant-WT): -0.45
[11]
  ΔpKi (mutant-WT): -0.10
[12]; M -4, replicates
  Fig_1a competition binding curve, source data: -1.355 and 1.993 and -0.6377 and -1.594 and 3.428 and -1.8334
[12]; M -7
  Fig_1a competition binding curve, source data: 29.733 and 32.3635 and 33.0809 and 32.8418 and 34.0375 and 33.3201
[12]; M -8
  Fig_1a competition binding curve, source data: 78.2782 and 80.4304 and 73.2563 and 83.061 and 72.778 and 84.4958
[12]; M -8.5
  Fig_1a competition binding curve, source data: 93.8222 and 94.0614 and 107.453 and 92.6265 and 93.1048
[12]; M -9
  Fig_1a competition binding curve, source data: 100.279 and 96.4528 and 102.67 and 87.1264 and 100.04 and 104.584
[12]; M -9.5
  Fig_1a competition binding curve, source data: 97.4093 and 108.171 and 98.605 and 95.0179 and 103.388
[12]; M -10
  Fig_1a competition binding curve, source data: 91.5385 and 88.2344 and 89.4739
[12]; M -11
  Fig_1a competition binding curve, source data: 89.0395 and 93.1048 and 90.4743 and 90.2352 and 86.4089 and 84.7349
[12]; M -12
  Fig_1a competition binding curve, source data: 100.518 and 86.6481 and 95.4962 and 94.7788 and 98.1268 and 94.5397
[12]; M -13
  Fig_1a competition binding curve, source data: 93.8222 and 89.2786 and 87.6046 and 85.6915 and 92.3874 and 93.1048
[13]
  ΔpKi (mutant-WT): -0.85
[14]
  ΔpKi (mutant-WT): 0.61
[15]
  ΔpKi (mutant-WT): -0.79
